The results in this text go back to patent EP2260303B1, “BIOMARKER FOR THE DIAGNOSIS OF A BRAIN TUMOR” (Meyer, Helmut E., priority 2008, dated 2009).

Assay [1] has as its system Glioblastomzelllinie T98G. The assay can be described thus: Chemosensitivity (dose-response curves, EC50) of T98G cell lines with modified biomarker expression. It is filed as cell-based. The note with it: Homo sapiens. From the text: (§1) Alle erfindungsgemäßen Biomarker (SEQ ID No. 1 - 24), die in den differentiellen Untersuchungen identifiziert wurden, sind potentiell in der Lage an der Vermittlung der Chemosensitivität dieser Gliome beteiligt zu sein. Durch den Einsatz ausgewählter Zytostatika mit unterschiedlichen Wirkmechanismen kann überprüft werden, ob die erfindungsgemäßen Biomarker (SEQ ID No. 1 - 24) direkt mit dem Reaktionsmechanismus der in der Therapie üblichen Zytostatika wechselwirken. Hierzu wurden stabile Zelllinien hergestellt und die erfindungsgemäßen Biomarker verstärkt exprimiert (Überexpression) und vermindert (knock-down) exprimiert (siehe J. Sambrook, E.F. Fritsch, T. Maniatis (1989), Molecular cloning: A laboratory manual, 2nd Edition, Cold Spring Habor Laboratory Press, Cold Spring Habor, USA oder Ausubel, "Current Protocols in Molecular Biology", Green Publishing Associates and Wiley Interscience, N.Y. (1989)). Eingesetzte Zytostatika: Carmustin und Vincristin, zwei Substanzen aus dem in der Therapie üblichen PCV Polychemotherapieschema, und Temozolomid, einem in der Therapie […] maligner Gliome neueren Wirkstoff. Zur Auswertung eines Effekts wurden Dosis-Wirkungs-Kurven und deren Lage zueinander und der korrespondierende EC50 Wert (Effektkonzentration; EC-50-Wert besagt, dass bei dieser Konzentration des Stoffes die Hälfte der Versuchsorganismen Wirkungen zeigt) berechnet.

For assay [2], the system named is Glioblastomzelllinie A172. The assay can be described thus: Chemosensitivity (dose-response curves, EC50) of A172 cell lines with modified biomarker expression. Type of assay: cell-based. The note with it: Homo sapiens.
Source text: as §1

In assay [3] the test system is stabilen Zelllinien aus A172 und T98G. Put plainly: Comparison of the response of the stable A172 and T98G cell lines to cytostatics (summary in words). Type of assay: cell-based, human. The note with it: versus control; for Verschiebung der Konzentrationen (Dosis-Wirkungs-Kurven): both cell lines.
Source text: as §1
Eine veränderte Reaktion auf eine Behandlung mit Carmustin wurde in allen stabilen Zelllinien aus A172 sowie aus T98G beobachtet.
Einen ähnlichen Effekt zeigte die Behandlung der Zelllinien mit Vincristin. […] Dieses Verhalten wurde ebenfalls in den beiden Zelllinien beobachtet.

SMILES strings stand for the structures.

Turning to `Cn1nnc2c(C(N)=O)ncn2c1=O` [Temozolomid], the EC50 was determined as 386 µM in assay [1] (T98G knock-down of ANXA1, treatment with Temozolomid); 335 µM in assay [1] (T98G knock-down of CLIC1, treatment with Temozolomid); 383 µM in assay [1] (T98G knock-down of PRDX1, treatment with Temozolomid); 348 µM in assay [1] (T98G knock-down of VIL2, treatment with Temozolomid); 327 µM in assay [1] (T98G knock-down series, control cell line (Kontrolle), treatment with Temozolomid); 409 µM in assay [1] (T98G overexpressing ANXA1, treatment with Temozolomid). In addition, the EC50 in assay [1] (T98G overexpressing CLIC1, treatment with Temozolomid) was 334 µM; in assay [1] (T98G overexpressing PRDX1, treatment with Temozolomid), 321 µM; in assay [1] (T98G overexpressing VIL2, treatment with Temozolomid) it was 396 µM; in assay [1] (T98G overexpression series, control cell line (Kontrolle), treatment with Temozolomid), 394 µM; in assay [2] (A 172, A172 knock-down of ANXA1, treatment with Temozolomid), 113 µM; in assay [2] (A 172, A172 knock-down of CLIC1, treatment with Temozolomid), 150 µM. For the same compound, the EC50 was found to be 118 µM in assay [2] (A 172, A172 knock-down of PRDX1, treatment with Temozolomid); 115 µM in assay [2] (A 172, A172 knock-down of VIL2, treatment with Temozolomid); 41 µM in assay [2] (A 172, A172 knock-down series, control cell line (Kontrolle), treatment with Temozolomid); 123 µM in assay [2] (A 172, A172 overexpressing ANXA1, treatment with Temozolomid); 82.6 µM in assay [2] (A 172, A172 overexpressing CLIC1, treatment with Temozolomid); 26.4 µM in assay [2] (A 172, A172 overexpressing PRDX1, treatment with Temozolomid). Moreover, the EC50 in assay [2] (A 172, A172 overexpressing VIL2, treatment with Temozolomid) turned out to be 83.1 µM; in assay [2] (A 172, A172 overexpression series, control cell line (Kontrolle), treatment with Temozolomid) it was 165 µM. Further, the Sensitivität entry in assay [3] (biomarkers overexpressed, stable cell lines from A172 and T98G) was “erhöhte Sensitivität”; in assay [3] (knock-down cell lines from A172 and T98G), “umgekehrter Effekt”.

Consider `CC[C@]1(O)C[C@H]2CN(CCc3c([nH]c4ccccc34)[C@@](C(=O)OC)(c3cc4c(cc3OC)N(C=O)[C@H]3[C@@](O)(C(=O)OC)[C@H](OC(C)=O)[C@]5(CC)C=CCN6CC[C@]43[C@@H]65)C2)C1` [Vincristin], for which the EC50 in assay [1] (T98G knock-down of ANXA1, treatment with Vincristin) is 0.0191 µM; in assay [1] (T98G knock-down of CLIC1, treatment with Vincristin) it was 0.0269 µM; in assay [1] (T98G knock-down of PRDX1, treatment with Vincristin), 0.0206 µM; in assay [1] (T98G knock-down of VIL2, treatment with Vincristin) it was 0.0358 µM; in assay [1] (T98G knock-down series, control cell line (Kontrolle), treatment with Vincristin) it was 0.01 µM; in assay [1] (T98G overexpressing ANXA1, treatment with Vincristin), 0.0042 µM. Besides, the EC50 in assay [1] (T98G overexpressing CLIC1, treatment with Vincristin) was found to be 0.0037 µM; in assay [1] (T98G overexpressing PRDX1, treatment with Vincristin) it was 0.0096 µM; in assay [1] (T98G overexpressing VIL2, treatment with Vincristin) it was 0.0241 µM; in assay [1] (T98G overexpression series, control cell line (Kontrolle), treatment with Vincristin), 0.0324 µM; in assay [2] (A 172, A172 knock-down of ANXA1, treatment with Vincristin), 0.037 µM; in assay [2] (A 172, A172 knock-down of CLIC1, treatment with Vincristin), 0.0642 µM. The EC50 was found to be 0.0527 µM in assay [2] (A 172, A172 knock-down of PRDX1, treatment with Vincristin); 0.0202 µM in assay [2] (A 172, A172 knock-down of VIL2, treatment with Vincristin); 0.0322 µM in assay [2] (A 172, A172 knock-down series, control cell line (Kontrolle), treatment with Vincristin); 0.0153 µM in assay [2] (A 172, A172 overexpressing ANXA1, treatment with Vincristin); 0.0193 µM in assay [2] (A 172, A172 overexpressing CLIC1, treatment with Vincristin); 0.0127 µM in assay [2] (A 172, A172 overexpressing PRDX1, treatment with Vincristin). Also, the EC50 in assay [2] (A 172, A172 overexpressing VIL2, treatment with Vincristin) is 0.0033 µM; in assay [2] (A 172, A172 overexpression series, control cell line (Kontrolle), treatment with Vincristin) it was 0.0152 µM. Also, the figures for the “Verschiebung der Konzentrationen (Dosis-Wirkungs-Kurven)” value in assay [3] (cell lines overexpressing the biomarkers) and in assay [3] (knock-down of the biomarkers) were “Verschiebung zu niedrigeren Konzentrationen” and “höhere Konzentrationen notwendig”, respectively.

For `O=NN(CCCl)C(=O)NCCCl` [Carmustin], the EC50 in assay [1] (T98G knock-down of ANXA1, treatment with Carmustin) was 121 µM; in assay [1] (T98G knock-down of CLIC1, treatment with Carmustin) it was 85.5 µM; in assay [1] (T98G knock-down of PRDX1, treatment with Carmustin), 118 µM; in assay [1] (T98G knock-down of VIL2, treatment with Carmustin) it was 159 µM; in assay [1] (T98G knock-down series, control cell line (Kontrolle), treatment with Carmustin) it was 152 µM; in assay [1] (T98G overexpressing ANXA1, treatment with Carmustin), 207 µM. Also, the concentration for a half-maximal effect (EC50) came to 346 µM in assay [1] (T98G overexpressing CLIC1, treatment with Carmustin); 158 µM in assay [1] (T98G overexpressing PRDX1, treatment with Carmustin); 223 µM in assay [1] (T98G overexpressing VIL2, treatment with Carmustin); 64.8 µM in assay [1] (T98G overexpression series, control cell line (Kontrolle), treatment with Carmustin); 95.6 µM in assay [2] (A 172, A172 knock-down of ANXA1, treatment with Carmustin); 171 µM in assay [2] (A 172, A172 knock-down of CLIC1, treatment with Carmustin). Besides, the half-maximal effective concentration (EC50) in assay [2] (A 172, A172 knock-down of PRDX1, treatment with Carmustin) is 107 µM; in assay [2] (A 172, A172 knock-down of VIL2, treatment with Carmustin) it was 90.8 µM; in assay [2] (A 172, A172 knock-down series, control cell line (Kontrolle), treatment with Carmustin) it was 94.4 µM; in assay [2] (A 172, A172 overexpressing ANXA1, treatment with Carmustin), 88.3 µM; in assay [2] (A 172, A172 overexpressing CLIC1, treatment with Carmustin), 105 µM; in assay [2] (A 172, A172 overexpressing PRDX1, treatment with Carmustin), 35.7 µM. The EC50 in assay [2] (A 172, A172 overexpressing VIL2, treatment with Carmustin) was 106 µM; in assay [2] (A 172, A172 overexpression series, control cell line (Kontrolle), treatment with Carmustin), 7.87 µM.
